Reference: PMC8231113, “Protein Secondary Structure Affects Glycan Clustering in Native Mass Spectrometry” (Life, 2021)

Key:
GII.4 Saga P dimer = GII.4 Saga P dimer (Norovirus GII.4 (human norovirus), UniProt B5BTR7); experiment: Native MS, specific glycan binding to P dimer after reference protein correction; parameters: species or system human norovirus (hNoV)
Method: (§1) Prior to MS analysis, purified P dimers were buffer exchanged to 150 mM ammonium acetate (Sigma-Aldrich, reagent grade ≥98%) at pH 7 via centrifugal filter units at 12,000× g at 4 °C (Vivaspin 500, MWCO 10000, Sartorius). Glycans for native MS analysis were mixed with 1 µM (per monomer) purified GII.4 Saga P dimer and 3 µM of the reference proteins at indicated concentrations. Native mass spectra were measured at room temperature in positive ion mode on a high mass modified LCT Premier mass spectrometer (Waters/Micromass, UK and MS Vision, the Netherlands) with a nano-ESI source. In house-made gold-coated electrospray capillaries were used for direct-sample infusion without any accessory chromatographic separation. The voltages and pressures were optimized for non-covalent protein complexes. The gas pressure used in the source hexapole was set between 6.5 and 6.8 × 10^−2 mbar argon optimized for minimal complex dissociation and the backing pressure of the source roughing pump was set between 7.0 and 8.5 mbar. Spectra were recorded with applied voltages for the capillary and cone of 1.20 kV and 240 V, respectively. Note that charge state distributions for P dimers were sometimes slightly shifted as was the degree of glycan clustering per charge state. These changes were highly variable and not quantifiable.
(§2) For calibration of the raw data, a 25 mg/mL cesium iodide spectrum from the same day was used. MassLynx V4.1 (Waters, Manchester, UK) was used to assign peak series to protein species and to determine the mass after minimal smoothing. Furthermore, OriginPro 2016 SR2 (OriginLab, Northampton, MA, USA) was used for spectral deconvolution and curve fitting. Correction for nonspecific protein-ligand clustering was performed as described. Corrected peak areas were averaged and normalized to the free-protein signal. Data were based on at least three independent measurements. Python code Panda and Numpy package were used to calculate the specific binding of P dimers according to the glycan clustering ratio obtained from the selected reference protein candidates. Seaborn and matplotlib.pyplot package were imported into a python script to plot the results. The module of sklearn.linear model was applied for linear regression. The matplotlib and heatmap package were used to plot the heatmap.
Data from native ESI MS measurements were translated into dissociation constants (KD values). The detailed calculations were based on the equations listed below. A protein (P) and a glycan ligand (L) form a complex through non-covalent interactions leading to a reversible association described by (Equation (1)):(1) P+L⇌PL when equilibrium is reached, the KD can be calculated directly from the concentrations via the law of mass action (Equation (2)):(2) KD=[Pfree][Lfree]/[PL]
(§3) Theoretically, the KD is calculated by measuring the concentration of the three components (Pfree, Lfree, PL) in solution. Usually, these values are only indirectly accessible because they require ligand titration up to binding saturation. However, native MS allows for the directly measurement of Pfree and PL, from which Lfree can be calculated using the input concentrations. In the present work, the non-covalent interaction was measured in the gas phase assuming identical ESI and detection efficiency for free and glycan-associated proteins, both for the analyte and the reference protein. […] For P dimers, the equations reflect glycan binding to the individual monomers assuming that binding sites on each monomer are equal and independent.
Using R described in Equation (3), the KD calculation can be re-written into Equation (4) with the known initial concentration of glycan ligand [L0] and protein [P0], adapted from Sun et al.:(3) R=PLequil∕Pequil=∑nA(PL^n+)∕n∕∑nA(P^n+)∕n (4) KD =L0−RP0/1+R/R […]

[1] = biological target: T1, L-lactic dehydrogenase from rabbit muscle (LDH) (Oryctolagus cuniculus, UniProt P13491); experiment: Native MS glycan clustering to reference protein LDH; assay type: binding; settings: on LDH
T1 construct: L-lactic dehydrogenase from rabbit muscle (LDH, CAS number 9001-60-9); purchased Sigma-Aldrich (Merck, Germany); host or cells: rabbit muscle
Method: as §1, §2, §3
Using R described in Equation (3), the KD calculation can be re-written into Equation (4) with the known initial concentration of glycan ligand [L0] and protein [P0], adapted from Sun et al.:(3) R=PLequil∕Pequil=∑nA(PL^n+)∕n∕∑nA(P^n+)∕n (4) KD =L0−RP0/1+R/R
For the carbohydrate-binding experiments, it was essential to keep the initial protein concentrations and pH value constant during the analysis of the protein-carbohydrate solutions. While acidification occurs in any ESI droplet, the remaining solution in the capillary changes pH over time. Therefore, accumulated spectra were obtained within 10 min after the voltages were applied to minimize the influence of pH changes during the measurements. […]

[2] = tested on: mutated hNoV GII.4 MI001 P dimer; experiment: Native MS corrected glycan binding to mutated MI001 P domain; parameters: species or system human norovirus (hNoV); settings: cyt c reference; 100 µM glycan

For CC(=O)N[C@H]1[C@H](O[C@H]2[C@@H](O)[C@@H](CO)O[C@H](O[C@@H]3[C@H](O)[C@@H](O)[C@H](O[C@H]4[C@H](O)[C@@H](O)C(O)O[C@@H]4CO)O[C@@H]3CO)[C@@H]2O)O[C@H](CO)[C@H](O)[C@@H]1O (stereo partly drawn) [Gb4, GalNAc β1-3 Galα1-4Galβ1-4Glc], the “specific binding after ADH based protein clustering correction” value (GII.4 Saga P dimer; Gb4: any listed glycan concentration, HBGA B: 500 µM) was “no specific binding”, the “Bound number of carbohydrates on Saga P dimer” value (“Bound number … on Saga P dimer” for short) (GII.4 Saga P dimer; ref. protein ADH, glycan 100 µM) was 0 and the “Bound number … on Saga P dimer” value (GII.4 Saga P dimer; ref. protein ADH, glycan 200 µM) was 0. The “Bound number … on Saga P dimer” value (GII.4 Saga P dimer; ref. protein ADH, glycan 300 µM) was 0, the “Bound number … on Saga P dimer” value (GII.4 Saga P dimer; ref. protein ADH, glycan 400 µM) was 0 and the “Bound number … on Saga P dimer” value (GII.4 Saga P dimer; ref. protein ADH, glycan 500 µM) was 0. The “Bound number … on Saga P dimer” value (GII.4 Saga P dimer; ref. protein CA, glycan 100 µM) was 1, the “Bound number … on Saga P dimer” value (GII.4 Saga P dimer; ref. protein CA, glycan 200 µM) was 1 and the “Bound number … on Saga P dimer” value (GII.4 Saga P dimer; ref. protein CA, glycan 300 µM) was 2. For the same compound, the “Bound number … on Saga P dimer” value (GII.4 Saga P dimer; ref. protein CA, glycan 400 µM) was 2, the “Bound number … on Saga P dimer” value (GII.4 Saga P dimer; ref. protein CA, glycan 500 µM) was 2 and the “Bound number … on Saga P dimer” value (GII.4 Saga P dimer; ref. protein Cyto c, glycan 100 µM) was 1. The “Bound number … on Saga P dimer” value (GII.4 Saga P dimer; ref. protein Cyto c, glycan 200 µM) was 2, the “Bound number … on Saga P dimer” value (GII.4 Saga P dimer; ref. protein Cyto c, glycan 300 µM) was 3 and the “Bound number … on Saga P dimer” value (GII.4 Saga P dimer; ref. protein Cyto c, glycan 400 µM) was 3. For the same compound, the “Bound number … on Saga P dimer” value (GII.4 Saga P dimer; ref. protein Cyto c, glycan 500 µM) was 4, the “Bound number … on Saga P dimer” value (GII.4 Saga P dimer; ref. protein GFP, glycan 100 µM) was 2 and the “Bound number … on Saga P dimer” value (GII.4 Saga P dimer; ref. protein GFP, glycan 200 µM) was 2. For the same compound, the “Bound number … on Saga P dimer” value (GII.4 Saga P dimer; ref. protein GFP, glycan 300 µM) was 2, the “Bound number … on Saga P dimer” value (GII.4 Saga P dimer; ref. protein GFP, glycan 400 µM) was 2 and the “Bound number … on Saga P dimer” value (GII.4 Saga P dimer; ref. protein GFP, glycan 500 µM) was 2. For the same compound, the “Bound number … on Saga P dimer” value (GII.4 Saga P dimer; ref. protein LDH, glycan 100 µM) was 0, the “Bound number … on Saga P dimer” value (GII.4 Saga P dimer; ref. protein LDH, glycan 200 µM) was 0 and the “Bound number … on Saga P dimer” value (GII.4 Saga P dimer; ref. protein LDH, glycan 300 µM) was 0. The “Bound number … on Saga P dimer” value (GII.4 Saga P dimer; ref. protein LDH, glycan 400 µM) was 0, the “Bound number … on Saga P dimer” value (GII.4 Saga P dimer; ref. protein LDH, glycan 500 µM) was 1 and the “Bound number … on Saga P dimer” value (GII.4 Saga P dimer; ref. protein Myo, glycan 100 µM) was 2. For the same compound, the “Bound number … on Saga P dimer” value (GII.4 Saga P dimer; ref. protein Myo, glycan 200 µM) was 3, the “Bound number … on Saga P dimer” value (GII.4 Saga P dimer; ref. protein Myo, glycan 300 µM) was 3 and the “Bound number … on Saga P dimer” value (GII.4 Saga P dimer; ref. protein Myo, glycan 400 µM) was 3. The “Bound number … on Saga P dimer” value (GII.4 Saga P dimer; ref. protein Myo, glycan 500 µM) was 4, the “Bound number … on Saga P dimer” value (GII.4 Saga P dimer; ref. protein Ubq, glycan 100 µM) was 2 and the “Bound number … on Saga P dimer” value (GII.4 Saga P dimer; ref. protein Ubq, glycan 200 µM) was 3. The “Bound number … on Saga P dimer” value (GII.4 Saga P dimer; ref. protein Ubq, glycan 300 µM) was 4, the “Bound number … on Saga P dimer” value (GII.4 Saga P dimer; ref. protein Ubq, glycan 400 µM) was 4 and the “Bound number … on Saga P dimer” value (GII.4 Saga P dimer; ref. protein Ubq, glycan 500 µM) was 4. For the same compound, the “Bound number … on Saga P dimer” value (GII.4 Saga P dimer; ref. protein apo-TFF, glycan 100 µM) was 0, the “Bound number … on Saga P dimer” value (GII.4 Saga P dimer; ref. protein apo-TFF, glycan 200 µM) was 0 and the “Bound number … on Saga P dimer” value (GII.4 Saga P dimer; ref. protein apo-TFF, glycan 300 µM) was 1. The “Bound number … on Saga P dimer” value (GII.4 Saga P dimer; ref. protein apo-TFF, glycan 400 µM) was 1, the “Bound number … on Saga P dimer” value (GII.4 Saga P dimer; ref. protein apo-TFF, glycan 500 µM) was 1 and the “Glycan-Clustering Ratio R” value ([1]; 100 µM glycan) was 0.35±0.04. The “Glycan-Clustering Ratio R” value ([1]; 200 µM glycan) was 0.51±0.08, the “Glycan-Clustering Ratio R” value ([1]; 300 µM glycan) was 0.68±0.02 and the “Glycan-Clustering Ratio R” value ([1]; 400 µM glycan) was 0.80±0.01. For the same compound, the “Glycan-Clustering Ratio R” value ([1]; 500 µM glycan) was 0.91±0.06 and the “corrected binding to mutated MI001 P dimer” value [2] was “basically no binding”.
